Patent US6992085B2, “Octahydro-2H-pyrido[1,2-a]pyrazine compounds” (Les Laboratories Servier, priority 2001, dated 2006)

Molecular target: T1, type H3 central histamine receptors (Mus musculus, UniProt P58406)
T1 construct: from tissue
Assay: Cerebral dosages of N^t-methylhistamine in the NMRI mouse (ex vivo, RIA)
Details: NMRI mice, brain one hour after treatment, versus carrier controls
Procedure: The purpose of this study, which was carried out in accordance with the method of Taylor et al. (Biochem. […] An increase in the cerebral concentrations of N^t-methylhistamine indicates an increase in the turn-over of histamine by blockage of the type H3 central histamine receptors. […] One hour after the pharmacological treatment, the animals are sacrificed, and their brains are removed, frozen in liquid nitrogen, weighed and homogenised in 0.1N HClO4 at 4° C. […] The supernatants are recovered and divided into aliquots. The aliquots are frozen in liquid nitrogen and stored at −80° C. until analysis. Determination of the cerebral levels of N^t-methylhistamine is carried out by radioimmunological assay (RIA) using an assay kit. The tissue levels of N^t-methylhistamine are expressed in μg/g of fresh brain. The comparison of the cerebral levels of N^t-methylhistamine between animals treated with the carrier (controls) and animals treated with compounds of the present invention is carried out by single factor variance analysis followed, if necessary, by a complementary analysis (Dunnett test).

T1 sequence (P58406 whole entry): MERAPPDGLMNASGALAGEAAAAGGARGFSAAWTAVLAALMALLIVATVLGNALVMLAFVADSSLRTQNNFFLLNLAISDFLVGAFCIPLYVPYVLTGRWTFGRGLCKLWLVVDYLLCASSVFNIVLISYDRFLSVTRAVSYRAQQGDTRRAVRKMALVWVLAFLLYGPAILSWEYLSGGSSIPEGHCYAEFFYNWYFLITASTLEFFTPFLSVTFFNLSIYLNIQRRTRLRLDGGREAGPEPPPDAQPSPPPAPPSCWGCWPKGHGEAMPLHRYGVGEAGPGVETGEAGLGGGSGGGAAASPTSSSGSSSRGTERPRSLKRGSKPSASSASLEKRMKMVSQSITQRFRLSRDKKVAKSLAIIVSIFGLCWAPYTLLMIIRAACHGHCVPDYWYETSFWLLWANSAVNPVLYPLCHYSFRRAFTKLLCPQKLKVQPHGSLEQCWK

increase in endogenous cerebral concentrations of N^t-methylhistamine (30 mg/kg IP) [%] | SMILES | further results
89 | Cl.Cl.Cl.c1ccc2c(c1)ncn2CCCCN1CCN2CCCCC2C1 (stereo not shown) [Example 53, 2-[4-(1H-Benzimidazol-1-yl)butyl]octahydro-2H-pyrido[1,2-a]pyrazine trihydrochloride] | –
– | N#Cc1ccc(OCCCN2CCN3CCCCC3C2)cc1.O=C(O)/C=C/C(=O)O.O=C(O)/C=C/C(=O)O (stereo not shown) [Example 56, 4-(3-Octahydro-2H-pyrido[1,2-a]pyrazin-2-ylpropoxy)benzonitrile difumarate] | increase in endogenous cerebral concentrations of N^t-methylhistamine (10 mg/kg IP, difumarate, 10 mg/kg): 252%
124 | Cl.Cl.c1ccc2c(c1)cnn2CCCCN1CCN2CCCCC2C1 (stereo not shown) [Example 55, 2-[4-(1H-Indazol-1-yl)butyl]octahydro-2H-pyridol[1,2-a]pyrazine dihydrochloride] | –
– | N#Cc1ccc(OCCCN2CCN3CCCCC3C2)cc1.O=C(O)/C=C/C(=O)O.O=C(O)/C=C/C(=O)O (single isomer, unassigned) [Example 58, 4-(3-octahydro-2H-pyrido[1,2-a]pyrazin-2-ylpropoxy)benzonitrile difumarate, enantiomer β] | increase in endogenous cerebral concentrations of N^t-methylhistamine (10 mg/kg IP, 10 mg/kg): 236%
